Measurements taken from US20120052175A1 (priority 2010, published 2012).

Assay: Moisture sensitivity test: hydrolytic degradation of isothiocyanate in aqueous phosphate buffer
Type: physicochemical
Details: white mustard essential oil (about 25% 4-HBITC) suspended in aqueous phosphate buffer pH about 3.6, about 20-23° C., about 24 hours
Protocol: Supercritical fluid chromatography can be used to determine the amount of 4-hydroxybenzyl isothiocyanate in a preservative composition. First an accurately weighed amount of the preservative composition is either dissolved in a compatible solvent such as ethyl acetate or ethyl acetate and ethanol mixtures or solid preservative compositions are extracted repeatedly with ethyl acetate.
These solutions are analyzed by supercritical fluid chromatography using the method described by Buskov, S. et al., “Supercritical fluid chromatography as a method of analysis for the determination of 4-hydroxybenzylglucosinolate degradation products,” Journal of Biochemical and Biophysical Methods, Vol. 43, pp 157-174 (2000) with the following modifications. A Berger SFC 3D system equipped with a photodiode array detector (Berger Instruments Inc., Newark, Del.) is used for the analysis. […] The eluate is detected at 226 and 252 nm. […]
Moisture sensitive isothiocyanate compounds are identified by suspending the isothiocyanate containing material in an aqueous phosphate buffer (pH of about 3.6) at room temperature. […] The extraction procedure is repeated after 24 hours and the level of residual isothiocyanate compound is measured by supercritical fluid chromatography. […]

Oc1ccc(CN=C=S)cc1 [4-hydroxybenzyl isothiocyanate]
percent reduction in level of 4-hydroxybenzyl isothiocyanate after 24 hours: about 72%
